Like-named read-outs stand apart in the source and are kept apart here.

One experiment deals with T1, pY705-STAT3 in PBMC (Homo sapiens, UniProt P40763).
T1 construct: Cryopreserved Peripheral Blood Mononuclear Cells (PBMC) are from AllCells; host or cells: cryopreserved PBMC
In words: MSD-pSTAT-PBMC Assay (pSTAT3, IL-6 stimulated). It counts as cell-based. Particulars: PBMC, compound 3 hrs, then 10 ng/mL IL-6 for 10 min. The procedure, abridged: (§1)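 Inhibition of cytokine-induced STAT phosphorylation was measured in recovered human PBMC after 3 hrs compound exposure and a 10 min IL-4 (1 ng/mL) or IL-6 (10 ng/mL) challenge. MSD detection of pY641-STAT6 or pY705-STAT3 yielded IC50 values.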

For another experiment, the target named is T2, pY641-STAT6 in PBMC (Homo sapiens, UniProt P42226).
T2 construct: Cryopreserved Peripheral Blood Mononuclear Cells (PBMC) are from AllCells; host or cells: cryopreserved PBMC
T2 sequence (P42226 1-847): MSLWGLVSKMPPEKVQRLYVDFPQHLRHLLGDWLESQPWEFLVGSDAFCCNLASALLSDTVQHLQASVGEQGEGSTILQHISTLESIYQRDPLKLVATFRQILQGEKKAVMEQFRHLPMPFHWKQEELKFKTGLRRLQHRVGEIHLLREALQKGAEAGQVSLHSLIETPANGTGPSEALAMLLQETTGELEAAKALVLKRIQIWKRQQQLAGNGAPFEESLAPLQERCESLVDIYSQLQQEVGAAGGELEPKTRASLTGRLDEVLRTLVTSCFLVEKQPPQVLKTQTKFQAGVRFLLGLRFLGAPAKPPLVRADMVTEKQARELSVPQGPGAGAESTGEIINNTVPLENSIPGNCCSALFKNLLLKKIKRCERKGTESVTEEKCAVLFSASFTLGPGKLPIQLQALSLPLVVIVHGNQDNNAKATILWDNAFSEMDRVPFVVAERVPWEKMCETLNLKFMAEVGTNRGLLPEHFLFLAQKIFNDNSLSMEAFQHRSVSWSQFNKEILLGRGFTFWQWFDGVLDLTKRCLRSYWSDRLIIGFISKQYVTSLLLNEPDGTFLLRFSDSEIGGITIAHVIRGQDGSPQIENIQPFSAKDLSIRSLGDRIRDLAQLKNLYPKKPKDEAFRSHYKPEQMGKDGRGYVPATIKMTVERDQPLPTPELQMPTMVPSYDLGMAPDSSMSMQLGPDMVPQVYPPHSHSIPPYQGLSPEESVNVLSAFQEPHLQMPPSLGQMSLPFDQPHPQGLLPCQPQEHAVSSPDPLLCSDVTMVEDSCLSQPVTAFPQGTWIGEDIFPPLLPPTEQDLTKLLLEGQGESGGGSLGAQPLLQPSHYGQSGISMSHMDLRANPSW
In words: MSD-pSTAT-PBMC Assay (pSTAT6, IL-4 stimulated). Particulars: PBMC, compound 3 hrs, then 1 ng/mL IL-4 for 10 min. The format is cell-based. Summed up:
as §1

T1 sequence (P40763 whole entry): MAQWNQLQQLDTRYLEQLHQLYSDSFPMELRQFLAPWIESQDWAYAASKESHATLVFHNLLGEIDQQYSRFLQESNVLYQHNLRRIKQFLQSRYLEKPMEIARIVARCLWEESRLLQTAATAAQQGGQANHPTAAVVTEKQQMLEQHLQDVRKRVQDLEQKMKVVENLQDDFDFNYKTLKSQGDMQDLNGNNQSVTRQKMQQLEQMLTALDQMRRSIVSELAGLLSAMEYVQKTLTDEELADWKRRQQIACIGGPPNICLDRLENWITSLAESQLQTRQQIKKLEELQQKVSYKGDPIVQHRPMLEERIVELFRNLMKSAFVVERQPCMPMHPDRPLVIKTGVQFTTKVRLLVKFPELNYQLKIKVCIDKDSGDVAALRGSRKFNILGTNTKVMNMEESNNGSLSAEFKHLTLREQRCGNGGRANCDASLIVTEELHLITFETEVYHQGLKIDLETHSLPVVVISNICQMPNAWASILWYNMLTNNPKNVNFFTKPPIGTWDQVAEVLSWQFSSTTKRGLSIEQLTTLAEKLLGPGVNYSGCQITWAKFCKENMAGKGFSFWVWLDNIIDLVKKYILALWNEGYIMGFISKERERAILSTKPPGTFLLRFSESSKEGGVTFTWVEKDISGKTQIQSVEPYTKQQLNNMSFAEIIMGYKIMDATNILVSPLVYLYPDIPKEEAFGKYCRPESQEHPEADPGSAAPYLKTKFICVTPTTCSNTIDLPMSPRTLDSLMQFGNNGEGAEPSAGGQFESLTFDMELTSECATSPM

In the case of `CC(C)C(=O)SCCOP(=O)(OCCSC(=O)C(C)C)C(F)(F)c1ccc2sc(C(=O)N[C@H]3CCC[C@H]4CC[C@@H](C(=O)N5CC(c6cccnc6)C5)N4C3=O)cc2c1` [Compound 1009, S,S′-((((difluoro(2-(((3S,6S,9aS)-5-oxo-3-(3-(pyridin-3-yl)azetidine-1-carbonyl)octahydro-1H-pyrrolo[1,2-a]azepin-6-yl)carbamoyl)benzo [b]thiophen-5-yl)methyl)phosphoryl)bis(oxy))bis(ethane-2,1-diyl)) bis(2-methyl-propanethioate)], the IC50 on pY705-STAT3 in PBMC (Table 115, read-out: STAT3) is less than 100 nM; on pY641-STAT6 in PBMC (Table 115, read-out: STAT6) it was 100 to 1000 nM.
The corresponding values for `COCC(=O)SCCOP(=O)(OCCSC(=O)COC)C(F)(F)c1ccc2sc(C(=O)N[C@H]3CCC[C@H]4CC[C@@H](C(=O)N5CC(c6cccnc6)C5)N4C3=O)cc2c1` [Compound 1011, S,S′-((((difluoro(2-(((3S,6S,9aS)-5-oxo-3-(3-(pyridin-3-yl)azetidine-1-carbonyl)octahydro-1H-pyrrolo[1,2-a]azepin-6-yl)carbamoyl)benzo [b]thiophen-5-yl)methyl)phosphoryl)bis(oxy))bis(ethane-2,1-diyl)) bis(2-methoxyethanethioate)] are less than 100 nM and 100 to 1000 nM.
Take `CC(C)(C)C(=O)SCCOP(=O)(OCCSC(=O)C(C)(C)C)C(F)(F)c1ccc2sc(C(=O)N[C@H]3CCC[C@H]4CC[C@@H](C(=O)N5CC(CS(C)(=O)=O)C5)N4C3=O)cc2c1` [Compound 1014, S,S′-((((difluoro(2-(((3S,6S,9aS)-3-(3-((methylsulfonyl)methyl)azetidine-1-carbonyl)-5-oxooctahydro-1H-pyrrolo[1,2-a]azepin-6-yl)carbamoyl)benzo [b]thiophen-5-yl)methyl)phosphoryl)bis(oxy))bis(ethane-2,1-diyl)) bis(2,2-dimethyl-propanethioate)]: the IC50 on pY705-STAT3 in PBMC (Table 115, read-out: STAT3) is less than 100 nM; at pY641-STAT6 in PBMC (Table 115, read-out: STAT6), 100 to 1000 nM.
Take `CC(C)CC(=O)SCCOP(=O)(OCCSC(=O)CC(C)C)C(F)(F)c1ccc2sc(C(=O)N[C@H]3CCCC[C@H]4CC[C@@H](C(=O)N5CC(c6ccccc6)CC56CC6)N4C3=O)cc2c1` (stereo partly drawn) [Compound 1082, S,S′-((((difluoro(2-(((3S,6S,10aS)-5-oxo-3-(6-phenyl-4-azaspiro[2.4]heptane-4-carbonyl)decahydropyrrolo[1,2-a]azocin-6-yl)carbamoyl)benzo [b]thiophen-5-yl)methyl)phosphoryl)bis(oxy))bis(ethane-2,1-diyl)) bis(3-methylbutanethioate)]: the IC50 was greater than 3000 nM on pY705-STAT3 in PBMC (Table 115, read-out: STAT3) and 100 to 1000 nM on pY641-STAT6 in PBMC (Table 115, read-out: STAT6).
The corresponding values for `CC(C)CC(=O)SCCOP(=O)(OCCSC(=O)CC(C)C)[C@@H](F)c1ccc2sc(C(=O)N[C@H]3CCC[C@H]4CC[C@@H](C(=O)N5CC(c6cccnc6)C5)N4C3=O)cc2c1` [Compound 1089, S,S′-(((((R)-fluoro(2-(((3S,6S,9aS)-5-oxo-3-(3-(pyridin-3-yl)azetidine-1-carbonyl)octahydro-1H-pyrrolo[1,2-a]azepin-6-yl)carbamoyl)benzo [b]thiophen-5-yl)methyl)phosphoryl)bis(oxy))bis(ethane-2,1-diyl)) bis(3-methylbutanethioate] are less than 100 nM and 100 to 1000 nM.
For `CC(C)CC(=O)SCCOP(=O)(OCCSC(=O)CC(C)C)C(F)(F)c1ccc2ccc(C(=O)N[C@H]3CCCC[C@H]4CC[C@@H](C(=O)N5CC(c6cc[nH]c(=O)c6)CC56CC6)N4C3=O)cc2c1` (stereo partly drawn) [Compound 1092, S,S′-((((difluoro(7-(((3S,6S,10aS)-5-oxo-3-(6-(2-oxo-1,2-dihydropyridin-4-yl)-4-azaspiro[2.4]heptane-4-carbonyl)decahydropyrrolo[1,2-a]azocin-6-yl)carbamoyl)naphthalen-2-yl)methyl)phosphoryl)bis(oxy))bis(ethane-2,1-diyl)) bis(3-methylbutanethioate)], the IC50 at pY705-STAT3 in PBMC (Table 115, read-out: STAT3) is 100 to 1000 nM; on pY641-STAT6 in PBMC (Table 115, read-out: STAT6), less than 100 nM.
For the compound `CC(C)CC(=O)SCCOP(=O)(OCCSC(=O)CC(C)C)C(F)(F)c1ccc2ccc(C(=O)N[C@H]3CCCC[C@H]4CC[C@@H](C(=O)N5CC(c6ccccc6)CC56CC6)N4C3=O)cc2c1` (stereo partly drawn) [Compound 1101, S,S′-((((difluoro(7-(((3S,6S,10aS)-5-oxo-3-(6-phenyl-4-azaspiro[2.4]heptane-4-carbonyl)decahydropyrrolo[1,2-a]azocin-6-yl)carbamoyl)naphthalen-2-yl)methyl)phosphoryl)bis(oxy))bis(ethane-2,1-diyl)) bis(3-methylbutanethioate)], the IC50 at pY705-STAT3 in PBMC (Table 115, read-out: STAT3) is greater than 3000 nM; on pY641-STAT6 in PBMC (Table 115, read-out: STAT6) it was less than 100 nM.
For the compound `COCCC(=O)SCCOP(=O)(OCCSC(=O)CCOC)C(F)(F)c1ccc2sc(C(=O)N[C@H]3CCC[C@H]4CC[C@@H](C(=O)N5CC(c6cccnc6)C5)N4C3=O)cc2c1` [Compound 1106, S,S′-((((difluoro(2-(((3S,6S,9aS)-5-oxo-3-(3-(pyridin-3-yl)azetidine-1-carbonyl)octahydro-1H-pyrrolo[1,2-a]azepin-6-yl)carbamoyl)benzo [b]thiophen-5-yl)methyl)phosphoryl)bis(oxy))bis(ethane-2,1-diyl)) bis(3-methoxy-propanethioate)], the IC50 on pY705-STAT3 in PBMC (Table 115, read-out: STAT3) was less than 100 nM; on pY641-STAT6 in PBMC (Table 115, read-out: STAT6) it was 100 to 1000 nM.
In the case of “S,S′- ((((difluoro(2- (((3S,6S,9aS)-5-oxo-3- (3-(pyridin-3- yl)azetidine-1- carbonyl)octahydro- 1H-pyrrolo[1,2-a] azepin-6-yl) carbamoyl)benzo[b] thiophen-5-yl)methyl) phosphoryl)bis(oxy)) bis(ethane-2,1-diyl)) bis(2,2- dimethylpropanethioate) [Compound 175]”, the IC50 was less than 100 nM at pY705-STAT3 in PBMC (Table 1114, read-out: pSTAT3) and 100 to 1000 nM at pY641-STAT6 in PBMC (Table 1114, read-out: pSTAT6).
The corresponding values for “S-(2- (((difluoro(2- (((3S,6S,9aS)-3-(3-((S- methylsulfonimidoyl) methyl)azetidine-1- carbonyl)-5- oxooctahydro-1H- pyrrolo[1,2-a]azepin-6- yl)carbamoyl)benzo[b] thiophen-5-yl)methyl) (((3-methylbutanoyl) thio)methoxy) phosphoryl)oxy)ethyl) 3-methylbutane thioate [Compound 178]” are 100 to 1000 nM and greater than 3000 nM.
The corresponding values for “S-(2-((((2- (((3S,6S,9aS)-3-(3-(3- cyanophenyl) azetidine-1-carbonyl)-5- oxooctahydro-1H- pyrrolo[1,2-a]azepin-6- yl)carbamoyl)benzo[b] thiophen-5-yl) difluoromethyl)(((3- methylbutanoyl)thio) methoxy)phosphoryl) oxy)ethyl) 3- methylbutane thioate [Compound 176]” are less than 100 nM and 1000 to 3000 nM.
“S-(2-((((2- (((3S,6S,10aS)-3- ((3S,4R or 3R,4S)-3- cyano-4- phenylpyrrolidine-1- carbonyl)-5- oxodecahydro- pyrrolo[1,2-a] azocin-6- yl)carbamoyl) benzo[b]thiophen- 5-yl)difluoromethyl) (2-(pivaloylthio) ethoxy)phosphoryl) oxy)ethyl) butanethioate [Compound 165]”: the IC50 on pY705-STAT3 in PBMC (Table 1114, read-out: pSTAT3) was 1000 to 3000 nM; on pY641-STAT6 in PBMC (Table 1114, read-out: pSTAT6) it was 100 to 1000 nM.

Source of the values: US20250215029A1 (Recludix Pharma, Inc., priority 2022, published 2025).
